Assays:
Mus musculus [1] = assay: Antinociceptive activity in ICR mouse model of chronic constriction injury-induced neuropathic pain assessed as inhibition of mechanical allodynia at 10 umol/kg, ip administered 7 days post-surgery and measured after 5 hrs post-dose by Von Frey assay relative to control; assay type: functional
Mus musculus [2] = assay: Antinociceptive activity in ICR mouse model of chronic constriction injury-induced neuropathic pain assessed as inhibition of mechanical allodynia at 10 umol/kg, ip administered 7 days post-surgery and measured after 3 hrs post-dose by Von Frey assay relative to control; assay type: functional
Mus musculus [3] = assay: Antinociceptive activity in ICR mouse model of chronic constriction injury-induced neuropathic pain assessed as inhibition of mechanical allodynia at 10 umol/kg, ip administered 7 days post-surgery and measured after 2 hrs post-dose by Von Frey assay relative to control; assay type: functional
Mus musculus [4] = assay: Antinociceptive activity in ICR mouse model of chronic constriction injury-induced neuropathic pain assessed as inhibition of mechanical allodynia at 10 umol/kg, ip administered 7 days post-surgery and measured after 1 hr post-dose by Von Frey assay relative to control; assay type: functional
Mus musculus [5] = assay: Antinociceptive activity in ICR mouse model of chronic constriction injury-induced neuropathic pain assessed as inhibition of mechanical allodynia at 10 umol/kg, ip administered 7 days post-surgery and measured after 0.5 hrs post-dose by Von Frey assay relative to control; assay type: functional
Mus musculus [6] = assay: Effect on nociception on contralateral paw in ICR mouse model of chronic constriction injury-induced neuropathic pain assessed as paw withdrawal threshold at 10 umol/kg, ip administered 7 days post-surgery and measured after 30 mins to 3 hrs post-dose by Von Frey assay; assay type: organism-based; conditions: in vivo
Mus musculus [7] = assay: Protection ratio of antinociceptive activity in ICR mouse model of chronic constriction injury-induced neuropathic pain assessed as inhibition of mechanical allodynia at 10 umol/kg, ip administered 7 days post-surgery and measured after 3 hrs to 1 hrs post-dose by Von Frey assay; assay type: functional
Mus musculus [8] = assay: Antinociceptive activity in ip dosed ICR mouse model of chronic constriction injury-induced neuropathic pain assessed as inhibition of mechanical allodynia administered 7 days post-surgery and measured after 1 hr post-dose by Von Frey assay; assay type: functional
Mus musculus [9] = assay: Antinociceptive activity in ICR mouse model of chronic constriction injury-induced neuropathic pain assessed as inhibition of mechanical allodynia at 3 umol/kg, ip administered 7 days post-surgery and measured after 5 hrs post-dose by Von Frey assay relative to control; assay type: functional
Mus musculus [10] = assay: Antinociceptive activity in ICR mouse model of chronic constriction injury-induced neuropathic pain assessed as inhibition of mechanical allodynia at 1 umol/kg, ip administered 7 days post-surgery and measured after 5 hrs post-dose by Von Frey assay relative to control; assay type: functional
Mus musculus [11] = assay: Antinociceptive activity in ICR mouse model of chronic constriction injury-induced neuropathic pain assessed as inhibition of mechanical allodynia at 3 umol/kg, ip administered 7 days post-surgery and measured after 3 hrs post-dose by Von Frey assay relative to control; assay type: functional
Mus musculus [12] = assay: Antinociceptive activity in ICR mouse model of chronic constriction injury-induced neuropathic pain assessed as inhibition of mechanical allodynia at 1 umol/kg, ip administered 7 days post-surgery and measured after 3 hrs post-dose by Von Frey assay relative to control; assay type: functional
Mus musculus [13] = assay: Antinociceptive activity in ICR mouse model of chronic constriction injury-induced neuropathic pain assessed as inhibition of mechanical allodynia at 3 umol/kg, ip administered 7 days post-surgery and measured after 2 hrs post-dose by Von Frey assay relative to control; assay type: functional
Mus musculus [14] = assay: Antinociceptive activity in ICR mouse model of chronic constriction injury-induced neuropathic pain assessed as inhibition of mechanical allodynia at 1 umol/kg, ip administered 7 days post-surgery and measured after 2 hrs post-dose by Von Frey assay relative to control; assay type: functional
Mus musculus [15] = assay: Antinociceptive activity in ICR mouse model of chronic constriction injury-induced neuropathic pain assessed as inhibition of mechanical allodynia at 3 umol/kg, ip administered 7 days post-surgery and measured after 1 hr post-dose by Von Frey assay relative to control; assay type: functional
Mus musculus [16] = assay: Antinociceptive activity in ICR mouse model of chronic constriction injury-induced neuropathic pain assessed as inhibition of mechanical allodynia at 1 umol/kg, ip administered 7 days post-surgery and measured after 1 hr post-dose by Von Frey assay relative to control; assay type: functional
Mus musculus [17] = assay: Antinociceptive activity in ICR mouse model of chronic constriction injury-induced neuropathic pain assessed as inhibition of mechanical allodynia at 3 umol/kg, ip administered 7 days post-surgery and measured after 0.5 hrs post-dose by Von Frey assay relative to control; assay type: functional
Mus musculus [18] = assay: Antinociceptive activity in ICR mouse model of chronic constriction injury-induced neuropathic pain assessed as inhibition of mechanical allodynia at 1 umol/kg, ip administered 7 days post-surgery and measured after 0.5 hrs post-dose by Von Frey assay relative to control; assay type: functional
Cannabinoid receptor 1 = Cannabinoid receptor 1 (Rattus norvegicus, UniProt P20272); assay: Antagonist activity at rat brain CB1 receptor expressed in HEK-Flp-In cells in presence of [3H]CP55940 measured after overnight incubation by Bright-Glo luminescence assay; assay type: cell-based
Cannabinoid receptor 2 = Cannabinoid receptor 2 (Rattus norvegicus, UniProt Q9QZN9); assay: Antagonist activity at rat brain CB2 receptor expressed in HEK-Flp-In cells in presence of [3H]CP55940 measured after overnight incubation by Bright-Glo luminescence assay; assay type: cell-based
Chain of Cannabinoid receptor 2 (Q9QZN9 whole entry, looked up): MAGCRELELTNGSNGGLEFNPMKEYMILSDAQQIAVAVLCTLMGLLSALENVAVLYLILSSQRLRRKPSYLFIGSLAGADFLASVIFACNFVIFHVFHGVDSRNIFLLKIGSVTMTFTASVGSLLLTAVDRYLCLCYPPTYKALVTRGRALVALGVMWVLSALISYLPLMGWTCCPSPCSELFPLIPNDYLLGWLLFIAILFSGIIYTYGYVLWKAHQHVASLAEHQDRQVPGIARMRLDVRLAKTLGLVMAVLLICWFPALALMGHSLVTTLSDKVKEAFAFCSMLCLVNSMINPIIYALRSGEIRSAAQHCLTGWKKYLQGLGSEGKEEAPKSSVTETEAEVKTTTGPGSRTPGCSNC

Chain of Cannabinoid receptor 1 (P20272 whole entry): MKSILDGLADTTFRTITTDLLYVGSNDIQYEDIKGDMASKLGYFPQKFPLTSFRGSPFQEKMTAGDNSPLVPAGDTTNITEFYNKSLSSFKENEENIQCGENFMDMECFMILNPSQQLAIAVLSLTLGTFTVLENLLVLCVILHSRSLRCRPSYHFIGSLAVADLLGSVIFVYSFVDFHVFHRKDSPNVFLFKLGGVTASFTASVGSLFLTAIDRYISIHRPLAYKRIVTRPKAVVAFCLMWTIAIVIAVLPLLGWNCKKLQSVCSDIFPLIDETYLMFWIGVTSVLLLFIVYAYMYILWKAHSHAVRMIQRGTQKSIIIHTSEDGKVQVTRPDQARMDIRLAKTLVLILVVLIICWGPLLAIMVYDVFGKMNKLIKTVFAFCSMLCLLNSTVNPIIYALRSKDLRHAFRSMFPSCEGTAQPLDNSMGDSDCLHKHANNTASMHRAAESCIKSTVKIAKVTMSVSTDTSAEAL

| Compound | inhibition in vivo at 10 µmol/kg (Mus musculus [1]) [%] | inhibition in vivo at 10 µmol/kg (Mus musculus [2]) [%] | inhibition in vivo at 10 µmol/kg (Mus musculus [3]) [%] | inhibition in vivo at 10 µmol/kg (Mus musculus [4]) [%] | inhibition in vivo at 10 µmol/kg (Mus musculus [5]) [%] | Activity (Mus musculus [6]) | Ratio (Mus musculus [7]) | ED50 (Mus musculus [8]) [µmol/kg] | inhibition in vivo at 3 µmol/kg (Mus musculus [9]) [%] | inhibition in vivo at 1 µmol/kg (Mus musculus [10]) [%] | inhibition in vivo at 3 µmol/kg (Mus musculus [11]) [%] | inhibition in vivo at 1 µmol/kg (Mus musculus [12]) [%] | inhibition in vivo at 3 µmol/kg (Mus musculus [13]) [%] | inhibition in vivo at 1 µmol/kg (Mus musculus [14]) [%] | inhibition in vivo at 3 µmol/kg (Mus musculus [15]) [%] | inhibition in vivo at 1 µmol/kg (Mus musculus [16]) [%] | inhibition in vivo at 3 µmol/kg (Mus musculus [17]) [%] | inhibition in vivo at 1 µmol/kg (Mus musculus [18]) [%] | IC50 (Cannabinoid receptor 1) [µM] | IC50 (Cannabinoid receptor 2) [µM] |
| --- | --- | --- | --- | --- | --- | --- | --- | --- | --- | --- | --- | --- | --- | --- | --- | --- | --- | --- | --- | --- |
| O=C(O)c1cc(O)c2ccc(-c3ccc(C(F)(F)F)cc3)cc2c1 | 0 | 35.2 | 59.8 | 64.2 | 23.4 | Non-Toxic | 0.34 - 0.63 |  |  |  |  |  |  |  |  |  |  |  |  |  |
| C#CCCCCN1CCC(c2ccc(-c3cc(C(=O)O)cc4cc(-c5ccc(C(F)(F)F)cc5)ccc34)cc2)CC1 | 0 | 9.6 | 42.7 | 75.9 | 52.4 |  | 0.13 |  |  |  |  |  |  |  |  |  |  |  |  |  |
| NCCCNC(=O)c1ccc(-c2cc(C(=O)O)cc(-n3cc(-c4ccc(C(F)(F)F)cc4)nn3)c2)s1 | 10 | 30.9 | 74 | 91.5 | 81 |  | 0.34 - 0.63 |  |  |  |  |  |  |  |  |  |  |  |  |  |
| O=C(O)c1cc(-c2ccc(C3CCNCC3)cc2)cc(-n2cc(-c3ccc(C(F)(F)F)cc3)nn2)c1 | 12.7 | 31.9 | 57.2 | 67.4 | 52.4 |  |  | 3.5 | 0 | 8.7 | 35.6 | 8.7 | 44.6 | 18.7 | 53.3 | 18.7 | 44.6 | 8.7 |  |  |
| O=C(O)c1cc(-c2ccc(C3CCNCC3)cc2)cc(-c2cn(-c3ccc(C(F)(F)F)cc3)nn2)c1 | 6.7 | 55.1 | 71.4 | 86.8 | 70.7 | Non-Toxic | 0.34 - 0.63 |  |  |  |  |  |  |  |  |  |  |  |  |  |
| CC(=O)N1CCC(c2ccc(-c3cc(C(=O)O)cc4cc(-c5ccc(C(F)(F)F)cc5)ccc34)cc2)CC1 |  |  |  |  |  | Non-Toxic |  |  |  |  |  |  |  |  |  |  |  |  |  |  |
| CCC(=O)N1CCC(c2ccc(-c3cc(C(=O)O)cc4cc(-c5ccc(C(F)(F)F)cc5)ccc34)cc2)CC1 | 5.6 | 55.7 | 71.6 | 77.2 | 32.9 |  | 0.72 - 0.92 |  |  |  |  |  |  |  |  |  |  |  |  |  |
| O=C(O)c1cc(-c2ccc(C3CCNCC3)cc2)c2ccc(-c3ccc(C(F)(F)F)cc3)cc2c1 [PPTN] | 21.3 | 78.6 | 96.4 | 100 | 87.9 | Non-Toxic |  | 1.6 | 8.7 | 4.7 | 64.7 | 4.7 | 76.9 | 10 | 79.3 | 19.9 | 62.9 | 10 | > 50 | > 50 |

— ChEMBL document CHEMBL4616709, “P2Y14 Receptor Antagonists Reverse Chronic Neuropathic Pain in a Mouse Model” (ACS Med Chem Lett, 2020)
